Assay results published in patent US20240025862A1, “SUBSTITUTED N-PHENYLURACILS AND SALTS THEREOF, AND USE THEREOF AS HERBICIDAL ACTIVE SUBSTANCES” (Bayer Aktiengesellschaft, priority 2020, published 2024).

What was measured:
Assay type in all cases: in vivo
[1] = system: Abutilon theophrasti (ABUTH); experiment: Post-emergence herbicidal action, greenhouse pot test; conditions: rated visually after about 3 weeks vs untreated controls, 100% = plants have died
Summary of the method: (§1)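 Activity was scored by eye about 3 weeks after treatment against untreated plants, where 100% means dead plants and 0% means no difference. Plants at the one-leaf stage received a foliar spray of WP or EC formulations in water plus 0.5% additive (600 l/ha, up to 20 g/ha). Plants were grown in sandy loam pots in a greenhouse for 2–3 weeks before spraying.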

[2] = system: Amaranthus retroflexus (AMARE); experiment: as above; conditions: rated visually after about 3 weeks vs untreated controls, 100% = plants have died
Summary of the method: as §1

[3] = system: Pharbitis purpurea (PHBPU); experiment: as above
Summary of the method: as §1

[4] = system: Polygonum convolvulus (POLCO); experiment: as above
Summary of the method: as §1

Stellaria media (STEME) = experiment: as above
Summary of the method: as §1

Veronica persica (VERPE) = experiment: as above
Summary of the method: as §1

Viola tricolor (VIOTR) = experiment: as above
Summary of the method: as §1

[5] = system: Alopecurus myosuroides (ALOMY); experiment: Post-emergence herbicidal action, greenhouse pot test (also comparative test C); conditions: rated visually after about 3 weeks vs untreated controls, 100% = plants have died
Summary of the method: (§2)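 Visual rating against untreated controls, about 3 weeks after spraying, from 0% (like control) to 100% (plants dead). Weeds were treated at the one-leaf stage, 2–3 weeks after sowing in sandy loam, with aqueous WP/EC spray containing 0.5% additive at 600 l/ha. Doses were ≤20 g/ha, or ≤5 g/ha for comparative test C.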

[6] = system: Matricaria inodora (MATIN); experiment: as above
Summary of the method: as §2

Setaria viridis (SETVI) = experiment: as above
Summary of the method: as §2

Brassica napus (BRSNW) = experiment: Post-emergence crop plant compatibility, greenhouse pot test; conditions: for Post-emergence action against BRSNW (crop plant compatibility): vs untreated controls
Summary of the method: (§3)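 Greenhouse pot test; post-emergence foliar spray at one-leaf stage, WP or EC in water + 0.5% additive, 600 l/ha. Visual rating after ~3 wk, % relative to untreated (0–100%).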

Glycine max (GLXMA) = experiment: as above
Summary of the method: as §3

Zea mays (ZEAMX) = experiment: as above; conditions: 1.25 g/ha, vs untreated controls
Summary of the method: as §3

Oryza sativa (ORYSA) = experiment: Post-emergence crop plant compatibility, greenhouse pot test (also comparative test C); conditions: for Post-emergence action against ORYSA (crop plant compatibility): vs untreated controls
Summary of the method: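 Visual damage versus untreated plants (0% = like control, 100% = plants died) was scored about 3 weeks after a post-emergence spray in greenhouse pots. Treatment: one-leaf stage, WP or EC in water at 600 l/ha with 0.5% additive; a/b/c mark different dosages on the same crop.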

Avena fatua (AVEFA) = experiment: Post-emergence herbicidal action, greenhouse pot test; conditions: rated visually after about 3 weeks vs untreated controls, 100% = plants have died
Summary of the method: as §1

Lolium rigidum (LOLRI) = experiment: as above; conditions: Lolium rigidum, 504 h, dosage 20 g/ha, read-out: Post-emergence action against LOLRI in %
Summary of the method: as §1

[7] = system: Echinochloa crus-galli (ECHCG); experiment: Post-emergence herbicidal action, greenhouse pot test (also comparative test C); conditions: Echinochloa crus-galli, 504 h, read-out: Post-emergence action against ECHCG in %
Summary of the method: as §2

## CC(Oc1ccccc1Sc1cc(-n2c(=O)cc(C(F)(F)F)n(C)c2=O)c(F)cc1Cl)C(=O)OCCO (racemic) [I.2-58]
[1]; 1.25 g/ha
  Post-emergence action at 1.25 g/ha against ABUTH in %: 100%
[1]; 5 g/ha
  Post-emergence action at 5 g/ha against ABUTH in %: 100%
[1]; 20 g/ha
  Post-emergence action at 20 g/ha against ABUTH in %: 100%
[2]; 1.25 g/ha
  Post-emergence action at 1.25 g/ha against AMARE in %: 90%
[2]; 5 g/ha
  Post-emergence action at 5 g/ha against AMARE in %: 100%
[2]; 20 g/ha
  Post-emergence action at 20 g/ha against AMARE in %: 100%
[3]; dosage 5 g/ha
  Post-emergence action against PHBPU in %: 80%
[3]; dosage 20 g/ha
  Post-emergence action against PHBPU in %: 100%
[4]; dosage 1.25 g/ha
  Post-emergence action against POLCO in %: 100%
[4]; dosage 5 g/ha
  Post-emergence action against POLCO in %: 100%
[4]; dosage 20 g/ha
  Post-emergence action against POLCO in %: 100%
Stellaria media (STEME); 5 g/ha
  Post-emergence action against STEME: 100%
Stellaria media (STEME); 20 g/ha
  Post-emergence action against STEME: 100%
Veronica persica (VERPE); 5 g/ha
  Post-emergence action against VERPE: 80%
Veronica persica (VERPE); 20 g/ha
  Post-emergence action against VERPE: 100%
Viola tricolor (VIOTR); 1.25 g/ha
  Post-emergence action against VIOTR: 100%
Viola tricolor (VIOTR); 5 g/ha
  Post-emergence action against VIOTR: 100%
Viola tricolor (VIOTR); 20 g/ha
  Post-emergence action against VIOTR: 100%
[5]; 20 g/ha
  Post-emergence action at 20 g/ha against ALOMY in %: 80%
[6]; dosage 5 g/ha
  Post-emergence action against MATIN in %: 80%
[6]; dosage 20 g/ha
  Post-emergence action against MATIN in %: 90%
Setaria viridis (SETVI); 20 g/ha
  Post-emergence action against SETVI: 100%
Setaria viridis (SETVI); dosage 1.25 g/ha
  Post-emergence action against SETVI in %: 100%
Setaria viridis (SETVI); dosage 5 g/ha
  Post-emergence action against SETVI in %: 100%
Brassica napus (BRSNW); 1.25 g/ha
  Post-emergence action against BRSNW (crop plant compatibility): 20%
Glycine max (GLXMA); 1.25 g/ha
  Post-emergence action against GLXMA in %: 10%
Glycine max (GLXMA); 5 g/ha
  Post-emergence action against GLXMA in %: 10%
Zea mays (ZEAMX)
  Post-emergence action against ZEAMX (crop plant compatibility): 10%
Oryza sativa (ORYSA); 1.25 g/ha
  Post-emergence action against ORYSA (crop plant compatibility): 10%
Oryza sativa (ORYSA); 5 g/ha
  Post-emergence action against ORYSA (crop plant compatibility): 10%
Oryza sativa (ORYSA); 20 g/ha, crop plant compatibility
  Post-emergence action against ORYSA in %: 20%

## Cn1c(C(F)(F)F)cc(=O)n(-c2cc(Oc3ccccc3OCC(=O)OCC#N)c(Cl)cc2F)c1=O [I.7-176, Cyanomethyl (2-{2-chloro-4-fluoro-5-[3-methyl-2,6-dioxo-4-(trifluoromethyl)-3,6-dihydropyrimidin-1(2H)-yl]phenoxy}phenoxy)acetate]
[1]; Abutilon theophrasti, 504 h, 5 g/ha, read-out: Post-emergence action at 5 g/ha against ABUTH in %
  pest or weed control at 5 g/ha: 100%
[1]; Abutilon theophrasti, 504 h, 20 g/ha, read-out: Post-emergence action at 20 g/ha against ABUTH in %
  pest or weed control at 20 g/ha: 100%
[2]; Amaranthus retroflexus, 504 h, 5 g/ha, read-out: Post-emergence action at 5 g/ha against AMARE in %
  pest or weed control at 5 g/ha: 100%
[2]; Amaranthus retroflexus, 504 h, 20 g/ha, read-out: Post-emergence action at 20 g/ha against AMARE in %
  pest or weed control at 20 g/ha: 100%
Avena fatua (AVEFA); 5 g/ha
  Post-emergence action at 5 g/ha against AVEFA in %: 80%
Avena fatua (AVEFA); Avena fatua, 504 h, 20 g/ha, read-out: Post-emergence action at 20 g/ha against AVEFA in %
  pest or weed control at 20 g/ha: 100%
Lolium rigidum (LOLRI)
  pest or weed control at 20 g/ha: 80%
[3]; Ipomoea purpurea, 504 h, dosage 5 g/ha, read-out: Post-emergence action against PHBPU in %
  pest or weed control at 5 g/ha: 100%
[3]; Ipomoea purpurea, 504 h, dosage 20 g/ha, read-out: Post-emergence action against PHBPU in %
  pest or weed control at 20 g/ha: 100%
[4]; Fallopia convolvulus, 504 h, dosage 5 g/ha, read-out: Post-emergence action against POLCO in %
  pest or weed control at 5 g/ha: 100%
[4]; Fallopia convolvulus, 504 h, dosage 20 g/ha, read-out: Post-emergence action against POLCO in %
  pest or weed control at 20 g/ha: 100%
Veronica persica (VERPE); Veronica persica, 504 h, 5 g/ha, read-out: Post-emergence action against VERPE
  pest or weed control at 5 g/ha: 100%
Veronica persica (VERPE); Veronica persica, 504 h, 20 g/ha, read-out: Post-emergence action against VERPE
  pest or weed control at 20 g/ha: 100%
Viola tricolor (VIOTR); Viola tricolor, 504 h, 5 g/ha, read-out: Post-emergence action against VIOTR
  pest or weed control at 5 g/ha: 100%
Viola tricolor (VIOTR); Viola tricolor, 504 h, 20 g/ha, read-out: Post-emergence action against VIOTR
  pest or weed control at 20 g/ha: 100%
[5]; Alopecurus myosuroides, 504 h, 5 g/ha, read-out: Post-emergence action at 5 g/ha against ALOMY in %
  pest or weed control at 5 g/ha: 100%
[5]; Alopecurus myosuroides, 504 h, 20 g/ha, read-out: Post-emergence action at 20 g/ha against ALOMY in %
  pest or weed control at 20 g/ha: 100%
[7]; dosage 5 g/ha
  pest or weed control at 5 g/ha: 100%
[7]; dosage 20 g/ha
  pest or weed control at 20 g/ha: 100%
[6]; Tripleurospermum inodorum, 504 h, dosage 5 g/ha, read-out: Post-emergence action against MATIN in %
  pest or weed control at 5 g/ha: 90%
[6]; Tripleurospermum inodorum, 504 h, dosage 20 g/ha, read-out: Post-emergence action against MATIN in %
  pest or weed control at 20 g/ha: 100%
Setaria viridis (SETVI); Setaria viridis, 504 h, 20 g/ha, read-out: Post-emergence action against SETVI
  pest or weed control at 20 g/ha: 100%
Setaria viridis (SETVI); Setaria viridis, 504 h, dosage 5 g/ha, read-out: Post-emergence action against SETVI in %
  pest or weed control at 5 g/ha: 100%
Brassica napus (BRSNW); 5 g/ha, crop plant compatibility, observed effects on crop plant in comparison to untreated controls
  Post-emergence action at 5 g/ha against BRSNW in %: 20%
Brassica napus (BRSNW); 20 g/ha
  Post-emergence action against BRSNW (crop plant compatibility): 20%
